From the supplement of paper PMC11061612

Assays:
Experiment in all cases: combination Emax (second highest fraction inhibited in the dose matrix, 72 h); higher = more inhibition; extreme values may be limits of the assay
[1] = test system: Hs-578-T (Breast Carcinoma)
In short: (§1)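 Cell lines grown in DMEM/F12 or RPMI with 10% FBS were plated in 1536-well plates and held 24 hours at 37°C, 5% CO2 before 72 hours of exposure to two-drug dose matrices, with DMSO typically at 0.2%. CellTiter-Glo 2.0 luminescence gave viability, which was converted to inhibition. Vehicle wells were set to 0 and blank wells to 1. Combination Emax is the second-highest inhibition in the matrix, and Bliss excess is the observed combination effect minus the expected EA + EB − EA·EB, where EA and EB are the single-agent effects.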

[2] = test system: LB831-BLC (Bladder Carcinoma)
In short: as §1

[3] = test system: Calu-3 (Lung Adenocarcinoma)
In short: as §1

[4] = test system: HT-1376 (Bladder Carcinoma)
In short: as §1

[5] = test system: LS-180 (Colorectal Carcinoma)
In short: as §1

[6] = test system: TE-9 (Esophageal Squamous Cell Carcinoma)
In short: as §1

[7] = test system: NCI-H82 (Small Cell Lung Carcinoma)
In short: as §1

[8] = test system: TE-15 (Esophageal Squamous Cell Carcinoma)
In short: as §1

[9] = test system: HO-1-N-1 (Oral Cavity Carcinoma)
In short: as §1

[10] = test system: CAL-148 (Breast Carcinoma)
In short: as §1

HOS (Osteosarcoma) = test system: HOS (Osteosarcoma)
In short: as §1

T98G (Glioblastoma) = test system: T98G (Glioblastoma)
In short: as §1

[11] = test system: ME-1 (Acute Myeloid Leukemia)
In short: as §1

[12] = test system: HCC-78 (Lung Adenocarcinoma)
In short: as §1

[13] = test system: UM-UC-3 (Bladder Carcinoma)
In short: as §1

KELLY (Neuroblastoma) = test system: KELLY (Neuroblastoma)
In short: as §1

[14] = test system: Ramos-2G6-4C10 (Burkitt's Lymphoma)
In short: as §1

[15] = test system: CCRF-CEM (T-Lymphoblastic Leukemia)
In short: as §1

[16] = test system: RO82-W-1 (Thyroid Gland Carcinoma)
In short: as §1

NB10 (Neuroblastoma) = test system: NB10 (Neuroblastoma)
In short: as §1

| Structure (SMILES) | combination Emax [1] | combination Emax [2] | combination Emax [3] | combination Emax [4] | combination Emax [5] | combination Emax [6] | combination Emax [7] | combination Emax [8] | combination Emax [9] | combination Emax [10] | combination Emax (HOS (Osteosarcoma)) | combination Emax (T98G (Glioblastoma)) | combination Emax [11] | combination Emax [12] | combination Emax [13] | combination Emax (KELLY (Neuroblastoma)) | combination Emax [14] | combination Emax [15] | combination Emax [16] | combination Emax (NB10 (Neuroblastoma)) |
| --- | --- | --- | --- | --- | --- | --- | --- | --- | --- | --- | --- | --- | --- | --- | --- | --- | --- | --- | --- | --- |
| C[C@@H](Nc1cc(F)cc(F)c1)c1cc(C(=O)N(C)C)cc2c(=O)cc(N3CCOCC3)oc12 [AZD8186] + CC(=O)c1c(C)c2cnc(Nc3ccc(N4CCNCC4)cn3)nc2n(C2CCCC2)c1=O [Palbociclib] (first compound max 10 µM, 7x7, partner max 10 µM) | 0.656 | 0.398 | 0.281 | 0.0814 | 0.624 | 0.109 | 0.526 | 0.597 | 0.505 | 0.655 | 0.336 | 0.657 | 0.233 | 0.365 | 0.621 | 0.434 | 0.302 | 0.622 | 0.27 | 0.403 |
| C[C@@H](Oc1cc(-c2cnn(C3CCNCC3)c2)cnc1N)c1c(Cl)ccc(F)c1Cl [Crizotinib] + CC1=C(C(=CC=C1)Cl)NC(=O)C2=CN=C(S2)NC3=CC(=NC(=N3)C)N4CCN(CC4)CCO [Dasatinib] (first compound max 10 µM, 7x7, partner max 2 µM) | 0.961 | 0.921 | 0.767 | 0.418 | 0.585 | 0.691 | 0.875 | 0.79 | 0.972 | 0.578 | 0.756 | 0.971 | 0.258 | 0.754 | 0.716 | 0.991 | 0.586 | 0.911 | 0.618 | 0.792 |
| C[C@@H](Oc1cc(-c2cnn(C3CCNCC3)c2)cnc1N)c1c(Cl)ccc(F)c1Cl [Crizotinib] + Cn1cnc2c(F)c(Nc3ccc(Br)cc3Cl)c(C(=O)NOCCO)cc21 [Selumetinib] (first compound max 10 µM, 7x7, partner max 10 µM) | 0.512 | 0.55 | 0.172 | 0.0756 | 0.717 | 0.167 | 0.787 | 0.406 | 0.769 | 0.578 | 0.457 | 0.427 | 0.458 | 0.637 | 0.346 | 0.98 | 0.4 | 0.854 | 0.197 | 0.872 |
| CS(=O)(=O)CCNCc1ccc(-c2ccc3ncnc(Nc4ccc(OCc5cccc(F)c5)c(Cl)c4)c3c2)o1 [Lapatinib] + Cn1cnc2c(F)c(Nc3ccc(Br)cc3Cl)c(C(=O)NOCCO)cc21 [Selumetinib] (first compound max 10 µM, 7x7, partner max 10 µM) | 0.69 | 0.379 | 0.933 | 0.287 | 0.758 | 0.149 | 0.416 | 0.775 | 0.956 | 0.373 | 0.332 | 0.25 | 0.397 | 0.228 | 0.306 | 0.936 | 0.347 | 0.46 | 0.193 | 0.481 |
| CS(=O)(=O)CCNCc1ccc(-c2ccc3ncnc(Nc4ccc(OCc5cccc(F)c5)c(Cl)c4)c3c2)o1 [Lapatinib] + NC1(c2ccc(-c3nc4ccn5c(=O)[nH]nc5c4cc3-c3ccccc3)cc2)CCC1 [MK-2206] (first compound max 10 µM, 7x7, partner max 10 µM) | 0.936 | 0.39 | 0.954 | 0.177 | 0.795 | 0.306 | 0.932 | 0.831 | 0.963 | 0.996 | 0.561 | 0.908 | 0.301 | 0.264 | 0.253 | 0.959 | 0.954 | 0.892 | 0.24 | 0.903 |
| O=C(c1cc(Cc2n[nH]c(=O)c3ccccc23)ccc1F)N1CCN(C(=O)C2CC2)CC1 [Olaparib] + CC1(C)CCC(CN2CCN(c3ccc(C(=O)NS(=O)(=O)c4ccc(NCC5CCOCC5)c([N+](=O)[O-])c4)c(Oc4cnc5[nH]ccc5c4)c3)CC2)=C(c2ccc(Cl)cc2)C1 [Venetoclax] (first compound max 10 µM, 7x7, partner max 1 µM) | 0.308 | 0.247 | 0.102 | 0.0615 | 0.203 | 0.171 | 0.395 | 0.251 | 0.221 | 0.261 | 0.22 | 0.123 | 1 | 0.0996 | 0.0664 | 0.632 | 0.126 | 0.209 | 0.129 | 0.348 |
| O=C(c1cc(Cc2n[nH]c(=O)c3ccccc23)ccc1F)N1CCN(C(=O)C2CC2)CC1 [Olaparib] + CN(CC[C@H](CSC1=CC=CC=C1)NC2=C(C=C(C=C2)S(=O)(=O)NC(=O)C3=CC=C(C=C3)N4CCC(CC4)[C@H](C5=CC=CC=C5C6=CC=C(C=C6)Cl)O)S(=O)(=O)C(F)(F)F)CCO [AZD4320] (first compound max 10 µM, 7x7, partner max 1 µM) | 0.62 | 0.409 | 0.257 | 0.215 | 0.227 | 0.321 | 0.382 | 0.22 | 0.352 | 0.83 | 0.277 | 0.251 | 1 | 0.241 | 0.188 | 0.831 | 0.404 | 0.986 | 0.546 | 0.389 |
| O=C(c1cc(Cc2n[nH]c(=O)c3ccccc23)ccc1F)N1CCN(C(=O)C2CC2)CC1 [Olaparib] + COc1nnc2ccc(N3CCC(c4ccc(OCCN5CCN(C)C(=O)[C@H]5C)cc4)CC3)nn12 [AZD5153] (first compound max 10 µM, 7x7, partner max 1 µM) | 0.729 | 0.465 | 0.516 | 0.0928 | 0.581 | 0.189 | 0.535 | 0.516 | 0.604 | 0.73 | 0.402 | 0.408 | 0.403 | 0.325 | 0.359 | 0.397 | 0.611 | 0.714 | 0.274 | 0.406 |
| O=C(c1cc(Cc2n[nH]c(=O)c3ccccc23)ccc1F)N1CCN(C(=O)C2CC2)CC1 [Olaparib] + Cc1c2c(nn1C)CSCc1cc(n(C)n1)CSc1cc(c3ccccc3c1)OCCCc1c(C(=O)O)n(C)c3c-2c(Cl)ccc13 [AZD5991] (first compound max 10 µM, 7x7, partner max 1 µM) | 0.489 | 0.136 | 0.0927 | 0.0928 | 0.221 | 0.202 | 0.899 | 0.29 | 0.78 | 0.635 | 0.254 | 0.223 | 0.551 | 0.13 | 0.0695 | 0.934 | 0.978 | 0.271 | 0.147 | 0.437 |
| N#Cc1cnc(Nc2cc(NC[C@H]3CNCCO3)c(C(F)(F)F)cn2)cn1 [SRA737] + C=CCn1c(=O)c2cnc(Nc3ccc(N4CCN(C)CC4)cc3)nc2n1-c1cccc(C(C)(C)O)n1 [AZD1775] (first compound max 10 µM, partner max 1 µM) | 0.783 | 0.721 | 0.495 | 0.387 | 0.758 | 0.7 | 0.985 | 0.821 | 0.666 | 0.969 | 0.811 | 0.9 | 0.566 | 0.714 | 0.471 | 1 | 1 | 0.995 | 0.116 | 0.84 |
| N#Cc1cnc(Nc2cc(NC[C@H]3CNCCO3)c(C(F)(F)F)cn2)cn1 [SRA737] + CCc1c2c(nc3ccc(O)cc13)-c1cc3c(c(=O)n1C2)COC(=O)[C@]3(O)CC [SN-38] (first compound max 10 µM, 7x7, partner max 0.3 µM) | 0.804 | 0.904 | 0.674 | 0.566 | 0.74 | 0.589 | 0.967 | 0.931 | 0.975 | 0.907 | 0.849 | 0.921 | 0.675 | 0.959 | 0.967 | 1 | 1 | 1 | 0.214 | 0.769 |
| N#Cc1cnc(Nc2cc(NC[C@H]3CNCCO3)c(C(F)(F)F)cn2)cn1 [SRA737] + Nc1ccn([C@@H]2O[C@H](CO)[C@@H](O)C2(F)F)c(=O)n1 [Gemcitabine] (first compound max 10 µM, 7x7, partner max 0.3 µM) | 0.837 | 0.911 | 0.67 | 0.442 | 0.804 | 0.52 | 0.978 | 0.923 | 1 | 0.845 | 0.752 | 0.825 | 0.66 | 0.906 | 0.966 | 1 | 0.976 | 1 | 0.212 | 0.946 |
| N#Cc1cnc(Nc2cc(NC[C@H]3CNCCO3)c(C(F)(F)F)cn2)cn1 [SRA737] + O=c1[nH]cc(F)c(=O)[nH]1 [5-Fluorouracil] (first compound max 10 µM, 7x7, partner max 20 µM) | 0.612 | 0.34 | 0.213 | 0.175 | 0.568 | 0.469 | 0.816 | 0.705 | 0.473 | 0.497 | 0.435 | 0.837 | 0.471 | 0.819 | 0.208 | 1 | 0.84 | 0.99 | 0.144 | 0.53 |
